Key:
Human DYRK1B = molecular target: T1, Human DYRK1B (Homo sapiens, UniProt Q9Y463); experiment: DYRK1B Kinase TR-FRET (IMAP-Tb) Assay; assay type: biochemical; details: for inhibition at 10 µM: % inhibition at 10 μM test compound concentration, where IC50 not determined; for IC50: TR-FRET (IMAP-Tb), ATP 70 μM, 37° C., 60 minutes, average of multiple runs, read-out: Enzyme IC50 (μM) DYRK1B
T1 construct: purchased Invitrogen PR8350B (former PV4649)
Text: DYRK1B Kinase TR-FRET (IMAP-Tb) Assay The kinase TR-FRET (IMAP-Tb) assay uses a fluorescence labeled substrate peptide in the kinase reaction. Upon phosphorylation by the kinase, phosphopeptide is produced, which will be detected by the binding solution provided in IMAP TR-FRET binding kit. After the completion of the kinase reaction, the reaction will be stopped by adding the binding solution containing terbium tracer. This tracer is immobilized on the surface of the IMAP beads, which also contain metal ions on the beads that bind to the phospho-groups of the products. Thus the phosphorylated product of the reaction can enter into close proximity to the tracer, producing resonance energy transfer. Due to the long lifetime of terbium (Tb) fluorescence the detection can be run in time resolved mode, which virtually eliminates fluorescence interference from assay components or compounds. The TR-FRET signal measurement from this assay, given as an IC50 measurement, is a measure of a test compound's ability to interfere with the phosphorylation of the peptide substrate, that is it inhibits the phosphorylation of the substrate peptide by DYRK1B, and is thus a measure of the test compound's ability to inhibit the activity of DYRK1B. […] Human DYRK1B: from Invitrogen. Part #PR8350B (former PV4649) • 2. Substrate Peptide: in-house synthesized: RRRFRPASPLRGPPK • 3. IMAP TR-FRET IPP Explorer Kit: from Molecular Devices. Part #R8157 • 4. Kinase Assay Buffer (KAB): 10 mM HEPES pH 7.0, 50 mM NaCl, 5 mM MgCl2, 1 mM DTT, 1 mM NaVO4, 200 μg/mL BSA (0.02%) • 5. Assay Plate: Remp polypropylene clear 384-well microplate. Cat#23490-102 • 6. Detection Plate: Costa black 384-well microplate. Cat #3710 Assay Procedure: This assay was performed as follows: • 1. Transfer 1.5 μL of 20× compound solution to each well of an assay plate. • 2. Add to each well 22.5 μL of KAB Buffer. • 3. Add to each well 3 μL of the solution of DYRK1B and ATP. […] Add to each well 3 μL of the substrate peptide. The assay concentration is 1.0 μM • 5. Incubate the assay plates at 37° C. for 60 minutes. • 6. Add 18 μL of Detection Solution (1:800 diluted Progress bead stock, 1:400 diluted Tb stock, 80% Buffer A, and 20% Buffer B) into each well of detection plates. • 7. Transfer 6 μL of assay solution from the assay plate to the detection plate. • 8. Shake detection plates for 30 minutes. • 9. Read plates in Envision with wavelength set at excitation 340 nm for Tb, emission 490 nm, and […] 520 nm. • 10. Calculation: TR-FRET Signal=(Reading at […]/Reading at 490 nM)×2000000

Human DYRK1A = molecular target: T2, Human DYRK1A (Homo sapiens, UniProt Q13627); experiment: DYRK1A Kinase TR-FRET (IMAP-Tb) Assay; assay type: biochemical; details: for inhibition at 10 µM: % inhibition at 10 μM test compound concentration, where IC50 not determined, read-out: % inhibition DYRK1A (printed in the Enzyme IC50 DYRK1A column); for IC50: TR-FRET (IMAP-Tb), ATP 70 μM, 37° C., 60 minutes, average of multiple runs, read-out: Enzyme IC50 (μM) DYRK1A
T2 construct: purchased Invitrogen PV3997
Text: DYRK1A Kinase TR-FRET (IMAP-Tb) Assay
The kinase TR-FRET (IMAP-Tb) assay uses a fluorescence labeled substrate peptide in the kinase reaction. Upon phosphorylation by the kinase, phosphopeptide is produced, which will be detected by the binding solution provided in IMAP TR-FRET binding kit. After the completion of the kinase reaction, the reaction will be stopped by adding the binding solution containing terbium tracer. This tracer is immobilized on the surface of the IMAP beads, which also contain metal ions on the beads that bind to the phospho-groups of the products. Thus the phosphorylated product of the reaction can enter into close proximity to the tracer, producing resonance energy transfer. Due to the long lifetime of terbium (Tb) fluorescence the detection can be run in time resolved mode, which virtually eliminates fluorescence interference from assay components or compounds.
The TR-FRET signal measurement from this assay, given as an IC50 measurement, is a measure of a test compound's ability to interfere with the phosphorylation of the peptide substrate, that is it inhibits the phosphorylation of the substrate peptide by DYRK1A, and is thus a measure of the test compound's ability to inhibit the activity of DYRK1A.
• 1. Human DYRK1A: from Invitrogen. Part #PV3997 • 2. Substrate Peptide: […] • 3. IMAP TR-FRET IPP Explorer Kit: from Molecular Devices. Part #R8157 • 4. Kinase Assay Buffer (KAB): 10 mM HEPES pH 7.0, 50 mM NaCl, 5 mM MgCl2, 1 mM DTT, 1 mM NaVO4, 200 μg/mL BSA (0.02%) • 5. Assay Plate: Remp polypropylene clear 384-well microplate. […] Detection Plate: Costa black 384-well microplate. […] Transfer 1.5 μL of 20× compound solution to each well of an assay plate. • 2. Add to each well 22.5 μL of KAB Buffer. • 3. Add to each well 3 μL of the solution of DYRK1A and ATP. […] Add to each well 3 μL of the substrate peptide. The assay concentration is 1.0 μM • 5. Incubate the assay plates at 37° C. for 60 minutes. • 6. Add 18 μL of Detection Solution (1:800 diluted Progress bead stock, 1:400 diluted Tb stock, 80% Buffer A, and 20% Buffer B) into each well of detection plates. • 7. Transfer 6 μL of assay solution from the assay plate to the detection plate. • 8. Shake detection plates for 30 minutes. • 9. Read plates in Envision with wavelength set at excitation 340 nm for Tb, emission 490 nm, and […].

T1 sequence (Q9Y463 whole entry): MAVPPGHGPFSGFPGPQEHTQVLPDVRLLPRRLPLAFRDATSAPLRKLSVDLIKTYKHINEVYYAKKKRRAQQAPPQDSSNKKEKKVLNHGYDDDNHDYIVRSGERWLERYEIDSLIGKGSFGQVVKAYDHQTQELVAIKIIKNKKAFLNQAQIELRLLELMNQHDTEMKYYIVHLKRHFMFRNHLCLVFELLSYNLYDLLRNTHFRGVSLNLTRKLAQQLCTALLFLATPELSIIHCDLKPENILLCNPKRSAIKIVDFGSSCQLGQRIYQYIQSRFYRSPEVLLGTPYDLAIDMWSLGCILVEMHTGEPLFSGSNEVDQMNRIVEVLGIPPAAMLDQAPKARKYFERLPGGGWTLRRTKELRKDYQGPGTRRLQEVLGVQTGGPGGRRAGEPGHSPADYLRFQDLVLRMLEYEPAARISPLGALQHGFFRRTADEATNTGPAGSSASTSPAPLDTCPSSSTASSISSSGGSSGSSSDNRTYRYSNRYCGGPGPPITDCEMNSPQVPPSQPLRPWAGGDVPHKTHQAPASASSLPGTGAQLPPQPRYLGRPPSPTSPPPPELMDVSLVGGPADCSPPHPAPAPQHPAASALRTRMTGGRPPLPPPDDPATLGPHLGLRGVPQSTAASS

SMILES	inhibition at 10 µM (Human DYRK1B)	inhibition at 10 µM (Human DYRK1A)	IC50 (Human DYRK1B)	IC50 (Human DYRK1A)
COc1cc2[nH]c(=O)c(C(=O)Nc3cc(C(=O)NCc4cccs4)ccc3Cl)cc2cn1 [Example 42, 7-Methoxy-2-oxo-1,2-dihydro-[1,6]naphthyridine-3-carboxylic acid {2-chloro-5-[(thiophen-2-ylmethyl)-carbamoyl]-phenyl}-amide]	41%	27%	–	–
COC(=O)c1ccc(C)c(NC(=O)c2cc3cnc(N4CCN(C)CC4)cc3[nH]c2=O)c1 [Example 74, 4-Methyl-3-{[7-(4-methyl-piperazin-1-yl)-2-oxo-1,2-dihydro-[1,6]naphthyridine-3-carbonyl]-amino}-benzoic acid methyl ester]	–	–	3.55 µM	0.96 µM
COc1cc2[nH]c(=O)c(C(=O)Nc3cc(C(=O)NCc4ccccc4)ccc3Cl)cc2cn1 [Example 32, 7-Methoxy-2-oxo-1,2-dihydro-[1,6]naphthyridine-3-carboxylic acid (5-benzylcarbamoyl-2-chloro-phenyl)-amide]	19%	23%	–	–
COc1cc2[nH]c(=O)c(C(=O)Nc3cc(C(=O)NCc4ccccc4Cl)ccc3Cl)cc2cn1 [Example 39, 7-Methoxy-2-oxo-1,2-dihydro-[1,6]naphthyridine-3-carboxylic acid [2-chloro-5-(2-chloro-benzylcarbamoyl)-phenyl]-amide]	–	–	7.22 µM	0.63 µM
COc1cc2[nH]c(=O)c(C(=O)Nc3cc(C(=O)NCc4ccc(Cl)cc4)ccc3C)cc2cn1 [Example 36, 7-Methoxy-2-oxo-1,2-dihydro-[1,6]naphthyridine-3-carboxylic acid [5-(4-chloro-benzylcarbamoyl)-2-methyl-phenyl]-amide]	–	–	> 10 µM	> 10 µM
COc1cc2[nH]c(=O)c(C(=O)Nc3cc(C(=O)NCc4cccc(Cl)c4)ccc3C)cc2cn1 [Example 35, 7-Methoxy-2-oxo-1,2-dihydro-[1,6]naphthyridine-3-carboxylic acid [5-(3-chloro-benzylcarbamoyl)-2-methyl-phenyl]-amide]	35%	45%	–	–
COc1ccc2cc(C(=O)Nc3cc(C(=O)NCc4ccccc4)ccc3Cl)c(=O)[nH]c2n1 [Example 94, N-(5-(Benzylcarbamoyl)-2-chlorophenyl)-7-methoxy-2-oxo-1,2-dihydro-1,8-naphthyridine-3-carboxamide]	–	–	0.079 µM	0.05 µM
COc1ccc2cc(C(=O)Nc3cc(C(=O)NC(CCN)c4ccccc4)ccc3C)c(=O)[nH]c2n1 (centres unmarked) [Example 100, N-(5-(3-Amino-1-phenylpropylcarbamoyl)-2-methylphenyl)-7-methoxy-2-oxo-1,2-dihydro-1,8-naphthyridine-3-carboxamide]	–	–	0.0158 µM	0.0162 µM
COC(=O)c1ccc(C)c(NC(=O)c2cc3ccc(OC)nc3[nH]c2=O)c1 [Example 89, 3-[(7-Methoxy-2-oxo-1,2-dihydro-[1,8]naphthyridine-3-carbonyl)-amino]-4-methyl-benzoic acid methyl ester]	47%	–	–	0.125 µM
COC(=O)c1ccc(C)c(NC(=O)c2cc3cnc(OC)cc3[nH]c2=O)c1 [Example 28, 3-[(7-Methoxy-2-oxo-1,2-dihydro-[1,6]naphthyridine-3-carbonyl)-amino]-4-methyl-benzoic acid methyl ester]	–	24%	> 10 µM	–
COC(=O)c1ccc(C)c(NC(=O)c2cc3ccc(N4CCN(C)CC4)nc3[nH]c2=O)c1 [Example 87, 4-Methyl-3-{[7-(4-methyl-piperazin-1-yl)-2-oxo-1,2-dihydro-[1,8]naphthyridine-3-carbonyl]-amino}-benzoic acid methyl ester]	–	–	1.31 µM	0.915 µM
COc1cc2[nH]c(=O)c(C(=O)Nc3cc(C(=O)NCc4cccc(Cl)c4)ccc3Cl)cc2cn1 [Example 40, 7-Methoxy-2-oxo-1,2-dihydro-[1,6]naphthyridine-3-carboxylic acid [2-chloro-5-(3-chloro-benzylcarbamoyl)-phenyl]-amide]	–	–	–	0.051 µM
COc1cc2[nH]c(=O)c(C(=O)Nc3cc(C(=O)NCc4ccccc4Cl)ccc3C)cc2cn1 [Example 34, 7-Methoxy-2-oxo-1,2-dihydro-[1,6]naphthyridine-3-carboxylic acid [5-(2-chloro-benzylcarbamoyl)-2-methyl-phenyl]-amide]	28%	45%	–	–
COc1ccc2cc(C(=O)Nc3cc(C(=O)NCc4ccccc4)ccc3C)c(=O)[nH]c2n1 [Example 98, N-(5-(Benzylcarbamoyl)-2-methylphenyl)-7-methoxy-2-oxo-1,2-dihydro-1,8-naphthyridine-3-carboxamide]	–	–	0.69 µM	0.79 µM
COc1cc2[nH]c(=O)c(C(=O)Nc3cc(C(=O)NCc4ccc(Cl)cc4)ccc3Cl)cc2cn1 [Example 41, 7-Methoxy-2-oxo-1,2-dihydro-[1,6]naphthyridine-3-carboxylic acid [2-chloro-5-(4-chloro-benzylcarbamoyl)-phenyl]-amide]	–	–	> 10 µM	> 10 µM

Source: patent US20120184562A1, “1,6- AND 1,8-NAPHTHYRIDINES” (priority 2011, published 2012)
